Assay [1] addresses T1, IDO1 (Homo sapiens, UniProt P14902). The experiment in a line: Enzyme-based IDO1 inhibitory assay (UV–vis, product at 320 nm). Format: biochemical. To be noted: for IC50: 100 μM L-Trp, mean ± SD, three determinations; for Ki: L-Trp 50, 100, 150 μM, [S]/[V] against [I] plot (Cornish-Bowden); for Type of Inhibition: position of intersections in [S]/[V] against [I] plot. As for the experimental part:
The IDO1 inhibitory assay was performed according to standard literature protocols with some modifications. The UV–vis method was used for evaluating the inhibitory activity of inhibitors against IDO1. Specifically, IDO1 (1 μM, 1 mL) was prepared by phosphate buffer (100 mM, pH 6.5) containing catalase (200 μg/mL), methylene blue (10 μM), and ascorbic acid (10 mM, pH 6.5). Concentrations of every inhibitor were varied from 1 to 200 μM, and experimental samples were incubated at 37 °C for 10 min. Then, a certain concentration of L-Trp was added before monitoring the product at 320 nm by UV–vis spectrophotometer immediately.
The inhibition percent of each inhibitor was determined by [1 − (A/B)] × 100%, where A is the enzymatic activity of IDO1 with inhibitor added and B is the absence of the inhibitor. […] The plot was described by the percent inhibition against Log10 concentration of the inhibitor.
Ki values of inhibitors were obtained by intersection of the three fitted lines in the plot, which was the absolute value of the X-axis value of the intersection. The plot was described by [S]/[V] against inhibitor concentration, where [S] and [V] were the substrate concentration and the reaction velocity, respectively. Furthermore, protein-inhibitor binding modes were determined by the position of the intersections in the plot. Data processing was performed by Origin 7.5.

The target of assay [2] is IDO1 expressed in HeLa cells (Homo sapiens, UniProt P14902). Briefly: IDO1 inhibitory assay in cell lines (kynurenine, IFN-γ induced), HeLa. Format: cell-based. Conditions: 100 μM inhibitor concentration. As for the experimental part:
(§1) IDO1 cellular activity assay was carried out by standard literature protocols. […] First of all, cells grew in high glucose DMEM medium containing 10% FBS and antibiotics. […] Then, 1 × 10^4 cells were seeded in 96-well plates and cultivated in carbon dioxide incubator at 37 °C containing 5% CO2 for 24 h. On day two, each well in the plates were treated with fresh DMEM medium, which contained L-Trp (20 μg/mL), IFN-γ (10 ng/mL), and different concentrations of inhibitor. The plate was incubated for 48 h further. Then, 140 μL of supernatant from each well was transferred into centrifuge tubes correlatively. An amount of 10 μL of 30% trichloroacetic acid (w/v) was added to each tube aimed to precipitate proteins. Subsequently, sample incubation (65 °C, 30 min) was required to make the N′-formylkynurenine (NFK) change into kynurenine which was the final product. Soon afterwards, the sample was centrifuged at 8000 rpm for 10 min. An amount of 100 μL supernatant from each tube was transferred into a new 96-well plate with an equal amount of 2% pDMAB added. The concentration of kynurenine could be measured because it reacts with pDMAB to form a product with a UV–vis absorption at 492 nm. To estimate cell viability, 1 × 10^4 normal cells named L02 were seeded in 96-well flat bottom plates with a final volume of 200 μL of DMEM complete growth medium. After being incubated for 24 h at 37 °C, the culture was replaced by a fresh complete growth medium (200 μL) and four inhibitors (200 μM) were added individually. Then, 48 h later, the medium was replaced by PBS (180 μL) mixed with CCK8 solution (20 μL) in each well. Cell viability was evaluated by testing the OD450nm. Finally, all data in cell experiments were processed by GraphPad Prism 7.00 to obtain the IDO1 inhibitory percentage of each inhibitor in the cells and the cell viability.

The target of assay [3] is T2, IDO1 expressed in MCF-7 cells (Homo sapiens, UniProt P14902).
T2 construct: endogenous in cells; host or cells: MCF-7 (IFN-γ induced)
Briefly: IDO1 inhibitory assay in cell lines (kynurenine, IFN-γ induced), MCF-7. Format: cell-based. To be noted: MCF7; 100 μM inhibitor concentration. As for the experimental part: as §1

Assay [4] concerns the target IDO1 expressed in CT26 cells (Mus musculus, UniProt P28776). Briefly: IDO1 inhibitory assay in cell lines (kynurenine, IFN-γ induced), CT26. To be noted: 100 μM inhibitor concentration. Format: cell-based. As for the experimental part: as §1
For assay [5], the target named is T3, IDO1 expressed in 4T1 cells (Mus musculus, UniProt P28776).
T3 construct: endogenous in cells; host or cells: 4T1 (IFN-γ induced)
Briefly: IDO1 inhibitory assay in cell lines (kynurenine, IFN-γ induced), 4T1. Format: cell-based. To be noted: 100 μM inhibitor concentration. As for the experimental part:
as §1

Assay [6] addresses T1, IDO1. Briefly: Determination of the inhibition types (reversible or irreversible; [V] versus [E] plot). Format: biochemical. To be noted: 100 μM inhibitor, 100 μM L-Trp. As for the experimental part: Based on the results of UV–vis spectra, the determination of inhibitory types was carried out according to the reference. The inhibitor was defined as reversible if the fitted lines were intersected in the plot (Figure 4A).
Different concentrations of IDO1 (1 mL) were prepared with 100 mM phosphate buffer (pH 6.5) containing methylene blue (10 μM), catalase (200 μg/mL), and ascorbic acid (10 mM, pH 6.5). Each sample was incubated at 37 °C for 10 min. An amount of 100 μM L-Trp was added before measuring by UV–vis spectrophotometer at 320 nm. The only difference for the other set of groups was 100 μM inhibitor was added in each sample before incubating. The data were analyzed by Origin 7.5, and plot of reaction rate [V] versus enzyme amount [E] was proposed using linear fit. The determination of inhibitory types was based on the linear trend of the fitted plot.

The IC50 is the midpoint of a concentration-inhibition curve. The low end stands for inhibition by little substance, the high end for a need for much substance. By Ki is commonly meant the equilibrium dissociation constant of an inhibitor or competing ligand from its target. A lower Ki goes with a stronger hold on the target. In general, inhibition refers to how much of the control response was suppressed. A higher inhibition goes with strong suppression.

SMILES strings stand for the structures. “Also recorded” adds a separate entry of the source.

T2 sequence (P14902 whole entry): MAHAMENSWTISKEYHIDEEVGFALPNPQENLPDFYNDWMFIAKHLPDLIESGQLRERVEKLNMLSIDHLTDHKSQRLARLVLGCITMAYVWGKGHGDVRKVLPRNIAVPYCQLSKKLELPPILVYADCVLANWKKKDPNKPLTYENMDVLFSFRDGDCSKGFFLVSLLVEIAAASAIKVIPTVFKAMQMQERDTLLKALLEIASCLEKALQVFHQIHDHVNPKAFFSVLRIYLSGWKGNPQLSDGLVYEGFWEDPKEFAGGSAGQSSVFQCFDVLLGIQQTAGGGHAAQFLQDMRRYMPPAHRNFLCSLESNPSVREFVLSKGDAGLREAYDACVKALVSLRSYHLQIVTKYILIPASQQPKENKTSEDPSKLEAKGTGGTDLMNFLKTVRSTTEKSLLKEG
T1 sequence (P14902 whole entry): as above
Sequence of IDO1 expressed in HeLa cells (P14902 whole entry): as above
T3 sequence (P28776 whole entry): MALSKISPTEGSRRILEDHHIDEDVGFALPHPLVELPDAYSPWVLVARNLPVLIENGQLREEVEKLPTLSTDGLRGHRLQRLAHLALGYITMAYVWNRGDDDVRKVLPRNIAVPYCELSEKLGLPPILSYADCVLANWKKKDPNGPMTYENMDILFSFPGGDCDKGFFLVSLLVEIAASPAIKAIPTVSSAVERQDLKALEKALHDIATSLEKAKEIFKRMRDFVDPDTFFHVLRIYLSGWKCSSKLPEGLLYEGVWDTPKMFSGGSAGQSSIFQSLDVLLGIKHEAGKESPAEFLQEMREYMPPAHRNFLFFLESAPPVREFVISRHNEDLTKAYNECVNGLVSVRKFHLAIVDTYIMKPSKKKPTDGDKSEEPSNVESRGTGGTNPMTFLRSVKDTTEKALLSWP
Sequence of IDO1 expressed in CT26 cells (P28776 whole entry): as above

For `COC(=O)[C@H]1N[C@@H](c2ccccc2)[C@@]2(C(=O)Nc3cc(C)ccc32)[C@@H]1c1ccccc1` [inhibitor 2], the IC50 against IDO1 [1] is 29.4 ± 1.3 µM. Moreover, the Ki at IDO1 [1] turned out to be 49.5 ± 6 µM. In addition, the “Type of Inhibition” value on IDO1 [1] is listed as “Uncompetitive”. Besides, the inhibition at 100 µM was found to be 27.1 ± 2.1% in assay [2], 22.4 ± 0.4% in assay [3], 4.2 ± 0.5% in assay [4] and 4.2 ± 1% in assay [5].

As to `COC(=O)[C@H]1N[C@@H](c2ccccc2)[C@@]2(C(=O)Nc3ccccc32)[C@@H]1c1ccccc1` [inhibitor 1], on IDO1 [1], the half-maximal inhibitory concentration (IC50) was 25.2 ± 3.6 µM. The affinity at IDO1 [1], expressed as Ki, was 42.3 ± 0.8 µM. For the same compound, the “Type of Inhibition” value on IDO1 [1] is “Uncompetitive”. Also, the inhibition at 100 µM in assay [2] turned out to be 25.5 ± 1.5%; in assay [3], 23.7 ± 2%; in assay [4], 3.7 ± 0.8%; in assay [5], 2.6 ± 0.6%.

With `COC(=O)[C@H]1N[C@@H](c2ccccc2)[C@@]2(C(=O)Nc3cc(OC)ccc32)[C@@H]1c1ccccc1` [inhibitor 3], the midpoint of inhibition against IDO1 [1], the IC50, lay at 7.9 ± 1.7 µM. Also, at IDO1 [1] (IC50, methoxyl group at 6-position versus inhibitors 1 and 2), the “increase of inhibitory activity by substituent modification” value worked out at 3 times. Moreover, on IDO1 [1] (IC50 ratio versus 4−PI), the “IDO1 inhibitory activity (IC50) relative to positive control 4−PI” value is recorded as “~six-fold; also recorded: ~six times”. On IDO1 [1], this compound gave a Ki of 63.6 ± 3.5 µM. Further, at IDO1 [1], the “Type of Inhibition” value was “Uncompetitive”. In addition, the “Inhibition type (reversible or irreversible)” value on IDO1 [6] is “reversible”. Moreover, the inhibition at 100 µM in assay [2] turned out to be 26.7 ± 0.7%; in assay [3], 27.8 ± 0.3%; in assay [4], 6.4 ± 0.8%; in assay [5] it was 4.3 ± 0.1%.

As to `COC(=O)[C@@H]1N[C@H](c2ccc(Br)cc2)[C@]2(C(=O)Nc3ccccc32)[C@H]1c1ccccc1` [inhibitor 4], inhibition against IDO1 [1] was half-maximal at 64.6 ± 3.9 µM (IC50). The compound further showed a Ki on IDO1 [1] of 101 ± 4.4 µM. Also, the “Type of Inhibition” value at IDO1 [1] is listed as “Uncompetitive”. For the same compound, the inhibition at 100 µM worked out at 25.6 ± 1.3% in assay [2], 20.7 ± 0.1% in assay [3], 1.7 ± 0.5% in assay [4] and 2.8 ± 0.3% in assay [5].
